Eight compounds from patent publication US20090192191A1, “Substituted hydroxamic acid derivatives as tnf inhibitors” (priority 2004, published 2009) can be followed below.

Broadly, the inhibition is the change of the read-out against control, counted positive when it falls.

One assay deals with TNF-α. In words: In vitro screening for TNF-α inhibitory activity using rat whole blood assay. The class given is cell-based. The settings on record: 10 μM test substance, LPS 1 μg/mL, 5 h at 37° C, plasma TNF-α by ELISA. The procedure: In Vitro Screening for TNF-α Inhibitory Activity Using Rat Whole Blood Assay:
Rats were deeply anaesthetized with anesthetic ether and blood (6-8 mL) was collected through retro-orbital plexus in a tube containing heparin (100 IU/mL). Five hundred microlitre blood sample was incubated with different concentrations of the test substances for 15 min at 37° C. LPS (1 μg/mL, final concentration) was subsequently added and the mixture was further incubated for 5 h at 37° C. The reaction was terminated by placing the samples over ice for 15 min. The samples were then centrifuged at 1000 g for 15 min at 4° C. The plasma was separated and stored in deep freezer until the assay. TNF-α levels were estimated in the treated plasma samples by ELISA method using commercially available kit (R&D System, Inc., USA). The inhibition of the TNF-α[…] production may be taken as an indicator of inhibition of TACE activity.
As for “2-3-Amino-3-{4-[2-(4-methoxy)phenyl)-quinolin-4-ylmethoxy]-phenyl}-2-oxo-pyrrolidin-1-yl)-4-methyl-pentanoic acid hydroxyamide [Compound 14]”, the “% of TNF-α inhibition at 10 μM dose” value was determined as 85%.

As to “2-{3-Amino-2-oxo-3-[4-2-p-tolyl-quinolin-4-ylmethoxy)-phenyl]-pyrrolidin-1-yl}-N-hydroxy-propionamide [Compound 9]”, the “% of TNF-α inhibition at 10 μM dose” value stood at 82%.

On to “2-{3-Amino-2-oxo-3-[4-(2-p-tolylsuinolin-4-ylmethoxy)-phenyl]-pyrrolidin-1-yl}-4-methyl-pentanoic acid hydroxyamide [Compound 8]”, for which the “% of TNF-α inhibition at 10 μM dose” value is recorded as 84%.

On to `CC(C)CC(C(=O)NO)N1CCC(N)(c2ccc(OCc3cc(COC(C)C)nc4ccccc34)cc2)C1=O` (centres unmarked) [Compound 5], for which the “% of TNF-α inhibition at 10 μM dose” value was 94%.

Take `COc1cccc(-c2cc(COc3ccc(C4(N)CCN(C(CC(C)C)C(=O)NO)C4=O)cc3)c3ccccc3n2)c1` (centres unmarked) [Compound 27]: the “% of TNF-α inhibition at 10 μM dose” value is given as 79%.

The same assay, now with this note: 10 μM test substance, LPS 1 μg/mL, 5 h at 37° C, plasma TNF-α by ELISA, read-out: % of TNF-α inhibition at 10 μM dose.
With `COc1ccc(-c2cc(COc3ccc([C@]4(N)CCN([C@H](C)C(=O)NO)C4=O)cc3)c3ccccc3n2)cc1` (stereo in doubt) [Compound 15, 2-(3-Amino-3-{4-[2-(4-methoxy-phenyl}-quinolin-4-ylmethoxy]-phenyl)-2-oxo-pyrrolidin-1-yl)-N-hydroxy-propionamide], the inhibition at 10 µM was determined as 84%.

Turning to `COCc1cc(COc2ccc([C@]3(N)CCN([C@H](CC(C)C)C(=O)NO)C3=O)cc2)c2ccccc2n1` [Compound 2], the inhibition at 10 µM was 92%.

For `COCCc1cc(COc2ccc(C3(N)CCN(C(CC(C)C)C(=O)NO)C3=O)cc2)c2ccccc2n1` (centres unmarked) [Compound 7, 2-(3-Amino-3-{4-[2-(2-methoxy-ethyl)quinolin-4-ylmethoxy]-phenyl}-2-oxo-pyrrolidin-1-yl)-4-methyl-pentanoic acid hydroxyamide], the inhibition at 10 µM stood at 85%.
